Test systems include K-562 leukemia; NCI-H23 lung; PC-3 prostate; BT-549 breast; SK-MEL-28 melanoma; SK-MEL-5 melanoma; CAKI-1 renal; HCT-15 colon; CCRF-CEM leukemia; HOP-92 NSCLC.
Common to all, as to experiment: inhibition of tumour cell growth, NCI panel, 48 h

This passage reports TGI and GI50 results from PubChem BioAssay (NCI).

Molecules are shown by their SMILES.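 1) Cells in 96-well plates. 2) Compound, 48 h, 5 concentrations. 3) Linear interpolation between surrounding doses. 4) Unreached endpoint = highest concentration. GI50 is the concentration that inhibits growth by half. At the TGI there is no net growth.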 Where a SMILES comes first, the peptide text is derived from it. The star is where a group is joined. Bn = c1ccc(C*)cc1

Consider `COC(=O)C(CC(C)C)NC(=O)C(N)Cc1ccc(OCc2ccccc2)cc1` (configuration not stated) (H-Tyr(Bn)-Leu-OMe; configuration not given here), for which the TGI in the experiment with K-562 leukemia, in the experiment with NCI-H23 lung, with PC-3 prostate, in the experiment on BT-549 breast, in the experiment on SK-MEL-28 melanoma and in the experiment on SK-MEL-5 melanoma was > 10 µM throughout. Besides, the TGI with CAKI-1 renal, with HCT-15 colon, with CCRF-CEM leukemia and in the experiment with HOP-92 NSCLC was > 10 µM in each case.

Consider `COC(=O)[C@H](Cc1ccccc1)NC(=O)c1ccc(CNC(=O)/C=C/c2cccc(Oc3ccccc3)c2)cc1`, for which the TGI with K-562 leukemia was > 100 µM; in the experiment on NCI-H23 lung, > 100 µM; with PC-3 prostate, > 100 µM; in the experiment with BT-549 breast, > 100 µM; in the experiment on SK-MEL-28 melanoma it was 23.9 µM; in the experiment on SK-MEL-5 melanoma, 36.9 µM. For the same molecule, the TGI was 58.1 µM with CAKI-1 renal, > 100 µM in the experiment on HCT-15 colon, > 100 µM in the experiment with CCRF-CEM leukemia and 21 µM in the experiment on HOP-92 NSCLC.

Turning to `CC(C)CCn1nc(N)c2nc3ccccc3nc21`, the TGI in the experiment with K-562 leukemia, with NCI-H23 lung, in the experiment on PC-3 prostate, in the experiment on BT-549 breast, with SK-MEL-28 melanoma and with CAKI-1 renal was > 100 µM throughout. Besides, the TGI with CCRF-CEM leukemia and in the experiment with HOP-92 NSCLC was > 100 µM each time.

`Cc1c2ccncc2c(C)c2c1[nH]c1ccccc12`: the TGI in the experiment with K-562 leukemia is 5.09 µM; in the experiment on NCI-H23 lung, 2.58 µM; in the experiment on PC-3 prostate, 8.55 µM; in the experiment on BT-549 breast, 3.34 µM; with SK-MEL-28 melanoma, 3 µM; in the experiment with SK-MEL-5 melanoma it was 2.01 µM. Further, the TGI was determined as 3.81 µM in the experiment with CAKI-1 renal, 2.73 µM in the experiment on HCT-15 colon, 4.44 µM in the experiment with CCRF-CEM leukemia and 2.59 µM in the experiment on HOP-92 NSCLC. In addition, the results for the GI50 in the experiment on PC-3 prostate and in the experiment on BT-549 breast were 1.2 µM and 1.56 µM, respectively.

Take `Cc1cn2c(C)csc2c1P(=O)(OC(C)C)OC(C)C`: the TGI with K-562 leukemia, in the experiment with NCI-H23 lung, with PC-3 prostate, with BT-549 breast, with SK-MEL-28 melanoma and with SK-MEL-5 melanoma was > 100 µM throughout. Further, the TGI in the experiment with CAKI-1 renal, with HCT-15 colon, in the experiment on CCRF-CEM leukemia and in the experiment on HOP-92 NSCLC was > 100 µM throughout.

On to `COc1cc([C@@H]2c3cc4c(cc3[C@@H](c3c(O)cc(O)c5c3O[C@H](c3ccc(O)c(O)c3)[C@@H](O)C5)[C@H]3COC(=O)[C@H]23)OCO4)cc(OC)c1O`, for which the TGI in the experiment with K-562 leukemia, with NCI-H23 lung, with PC-3 prostate, in the experiment with BT-549 breast, in the experiment with SK-MEL-28 melanoma and with SK-MEL-5 melanoma was > 100 µM throughout. Further, the TGI in the experiment on CAKI-1 renal, in the experiment on HCT-15 colon, in the experiment on CCRF-CEM leukemia and in the experiment on HOP-92 NSCLC was > 100 µM in each case.

On to `NS(=O)(=O)c1ccc(NC(NC(=O)C(C(F)(F)F)C(F)(F)F)(C(F)(F)F)C(F)(F)F)cc1`, for which the TGI in the experiment with K-562 leukemia, with NCI-H23 lung, with PC-3 prostate, with BT-549 breast, with SK-MEL-28 melanoma and with SK-MEL-5 melanoma was > 100 µM in each case. Further, the TGI with CAKI-1 renal, with HCT-15 colon, with CCRF-CEM leukemia and in the experiment with HOP-92 NSCLC was > 100 µM throughout.

As to `COc1ccc(N=NC(=Nc2ccc(F)cc2)c2ccc(N(CCC#N)CCC#N)cc2)cc1`, the TGI in the experiment with K-562 leukemia is > 100 µM; with NCI-H23 lung it was 65.6 µM; with PC-3 prostate it was 58.9 µM; with BT-549 breast it was 70.8 µM; with SK-MEL-28 melanoma, > 100 µM; in the experiment with SK-MEL-5 melanoma, > 100 µM. The TGI was > 100 µM in the experiment on CAKI-1 renal, > 100 µM in the experiment with HCT-15 colon, > 100 µM in the experiment with CCRF-CEM leukemia and 72.9 µM with HOP-92 NSCLC.

As to `CC/C(Cl)=N\OC(=O)Nc1ccc(F)c([N+](=O)[O-])c1`, the TGI with K-562 leukemia is > 24.5 µM; in the experiment with NCI-H23 lung it was 35.6 µM; with PC-3 prostate, 32.4 µM; with BT-549 breast it was 31.5 µM; with SK-MEL-28 melanoma, 33.9 µM; in the experiment on SK-MEL-5 melanoma, 29.5 µM. Also, the TGI with CAKI-1 renal was 7.7 µM; with HCT-15 colon, 19.8 µM; in the experiment with CCRF-CEM leukemia it was > 20 µM; in the experiment on HOP-92 NSCLC, 12 µM.

`N#CCCN(CCC#N)c1ccc(/C=C2\SC(=S)NC2=O)cc1Br`: the TGI with K-562 leukemia, with NCI-H23 lung, with PC-3 prostate, with BT-549 breast, with SK-MEL-28 melanoma and in the experiment on SK-MEL-5 melanoma was > 100 µM each time. The TGI with CAKI-1 renal, in the experiment with HCT-15 colon, in the experiment on CCRF-CEM leukemia and in the experiment on HOP-92 NSCLC was > 100 µM in each case.

Turning to `Cc1cc(/N=C/c2ccc(C#N)cc2)n(-c2ccccc2)n1`, the TGI in the experiment with K-562 leukemia, in the experiment with NCI-H23 lung, in the experiment with PC-3 prostate, in the experiment with BT-549 breast, in the experiment with SK-MEL-28 melanoma and in the experiment with SK-MEL-5 melanoma was > 100 µM in each case. Besides, the TGI in the experiment with CAKI-1 renal, in the experiment with HCT-15 colon, with CCRF-CEM leukemia and with HOP-92 NSCLC was > 100 µM throughout.

Consider `Cc1ccc(S(=O)(=O)NC(=O)NNc2ccc(F)cc2)cc1`, for which the TGI in the experiment with K-562 leukemia is > 58.2 µM; in the experiment on PC-3 prostate, > 100 µM; in the experiment with BT-549 breast it was > 31.6 µM; in the experiment with SK-MEL-28 melanoma, > 100 µM; with SK-MEL-5 melanoma, > 100 µM; in the experiment with CAKI-1 renal, > 100 µM. In addition, the TGI in the experiment with HCT-15 colon, with CCRF-CEM leukemia and with HOP-92 NSCLC was > 100 µM each time.

Regarding `Cc1ccc(-c2c(C#N)c(-c3ccc([N+](=O)[O-])cc3)c(C#N)c(=O)n2NS(=O)(=O)c2ccccc2)cc1`, the TGI with K-562 leukemia is > 100 µM; with PC-3 prostate, > 100 µM; in the experiment with BT-549 breast it was 94.9 µM; with SK-MEL-28 melanoma it was > 100 µM; in the experiment with SK-MEL-5 melanoma, 26.9 µM; in the experiment with CAKI-1 renal, > 100 µM. Further, the TGI in the experiment with HCT-15 colon was > 100 µM; with CCRF-CEM leukemia, 58.3 µM; in the experiment on HOP-92 NSCLC it was 85.9 µM.

As for `O=C(O)c1ccc2c(c1)CC1(C2)Cc2cc3c(cc2C1=O)CCC3` (configuration not stated), the TGI in the experiment with K-562 leukemia, in the experiment on NCI-H23 lung, with PC-3 prostate, in the experiment with BT-549 breast, with SK-MEL-28 melanoma and in the experiment with SK-MEL-5 melanoma was > 100 µM each time. Further, the TGI in the experiment with HCT-15 colon, in the experiment with CCRF-CEM leukemia and in the experiment on HOP-92 NSCLC was > 100 µM each time.
